How the values were obtained:
Type in all cases: biochemical
[1] = target: 92 kDa gelatinase (MMP-9) (Homo sapiens, UniProt P14780); assay: MMP-9 enzyme inhibition assay (coumarin-labeled peptide substrate); conditions: for IC50: read-out: IC50 MMP9
How it was run: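 Recombinant human MMP-9 (APMA-activated if needed) was assayed in 100 mM Tris-HCl pH 7.6, 100 mM NaCl, 10 mM CaCl2, 0.05% Brij 35, with McaPLGLDpaAR substrate at 37° C. for 2 h. Fluorescence was read at ex 320/em 405 nm over ten 3-fold compound doses (100 μM–5.1 nM) in duplicate. IC50 came from a four-parameter fit.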

collagenase (MMP-1) = target: T1, collagenase (MMP-1) (Homo sapiens, UniProt P03956); assay: MMP-1 enzyme inhibition assay (coumarin-labelled peptide substrate); conditions: read-out: percentage inhibition MMP1
T1 sequence (P03956 100-469): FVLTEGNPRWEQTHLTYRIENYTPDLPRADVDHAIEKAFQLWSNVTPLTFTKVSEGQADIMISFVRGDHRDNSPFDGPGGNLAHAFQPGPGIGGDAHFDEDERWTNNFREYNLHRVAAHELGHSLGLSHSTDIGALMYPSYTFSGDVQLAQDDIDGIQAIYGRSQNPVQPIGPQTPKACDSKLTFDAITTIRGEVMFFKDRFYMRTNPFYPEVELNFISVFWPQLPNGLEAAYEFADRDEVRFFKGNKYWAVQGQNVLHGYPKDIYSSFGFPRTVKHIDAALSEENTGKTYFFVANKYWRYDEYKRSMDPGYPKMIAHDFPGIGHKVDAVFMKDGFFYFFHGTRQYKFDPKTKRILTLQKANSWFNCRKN
How it was run: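 Recombinant human MMP-1, APMA-activated if needed, in Tris-HCl pH 7.6 with NaCl, CaCl2 and 0.05% Brij 35; McaPLGLDpaAR substrate added as 8 μM solution, 2 h at 37 °C. Fluorescence (320/405 nm) read without stopping; IC50 from 10 duplicate concentrations (100 μM–5.1 nM) by four-parameter fit.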

human ADAM17 (TACE) = human ADAM17 (TACE) (Homo sapiens, UniProt P78536); assay: TACE enzyme inhibition assay
Sequence of human ADAM17 (TACE) (P78536 215-824): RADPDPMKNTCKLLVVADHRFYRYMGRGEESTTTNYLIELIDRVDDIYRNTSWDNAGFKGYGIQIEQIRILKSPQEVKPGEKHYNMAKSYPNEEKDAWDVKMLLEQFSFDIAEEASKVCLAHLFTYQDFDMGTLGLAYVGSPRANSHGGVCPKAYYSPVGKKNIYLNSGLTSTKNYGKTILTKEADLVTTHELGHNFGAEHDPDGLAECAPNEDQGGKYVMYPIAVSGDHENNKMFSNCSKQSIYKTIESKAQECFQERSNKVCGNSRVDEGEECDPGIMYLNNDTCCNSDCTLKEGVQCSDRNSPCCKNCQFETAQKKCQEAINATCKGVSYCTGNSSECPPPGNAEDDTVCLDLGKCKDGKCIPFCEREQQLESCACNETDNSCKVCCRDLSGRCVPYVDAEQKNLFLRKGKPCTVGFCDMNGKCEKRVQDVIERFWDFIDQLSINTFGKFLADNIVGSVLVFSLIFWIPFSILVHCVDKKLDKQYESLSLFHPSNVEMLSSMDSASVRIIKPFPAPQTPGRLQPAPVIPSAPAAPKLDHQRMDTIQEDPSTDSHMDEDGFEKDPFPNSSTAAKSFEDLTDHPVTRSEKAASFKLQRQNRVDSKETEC
Procedure: Compounds of the invention were tested to assess their activities as inhibitors of MMP-1, MMP-2, MMP-9, MMP-14, MMP-12 and TACE. MMP-9 Assay Protocol
Compounds of the invention can be tested for inhibitory activity against human ADAM17 in an assay using human Mca-(endo-1a-Dap(Dnp)-TNF-alpha(−5 to +6)amide as substrate (FEBS Letters, 2000, 275-279).
Stock solutions are prepared as followed: • Assay Buffer: 20 mM Hepes pH 7.5 (Fluka) containing 0.05% Brij 35 (Fluka) • Substrate: 6.1 mM human Mca-(endo-1a-Dap(Dnp)-TNF-alpha(−5 to +6)amide (Bachem) stock solution in 100% DMSO (stored at −20° C.); diluted to 5 μM in assay buffer. • Enzyme: Recombinant human ADAM17, appropriately diluted in assay buffer (1.5 μg/ml).
Test Compounds are prepared initially as 10 mM compound solution in 100% DMSO, diluted to 1 mM in 100% DMSO, then serially diluted 3-fold in 100% DMSO across a 96-well microtitre plate. Assay concentration range is typically between 100 μM to 0.01 nM. The assay is performed in a total volume of 100 μL per well in 96-well microtitre plates. Appropriate concentrations of test compounds dissolved in 10 μL of DMSO are added to the wells, followed by substrate solution (50 μL, 5 μM prepared by dilution of DMSO stock in assay buffer) and enzyme solution (40 μL). For each as say ten concentrations of test compound are examined in […]. Control wells lack either enzyme or test compound. The reactions are incubated at room temperature for 1.5 hours. The fluorescence at 405 nm is measured immediately with a fluorometer using 355 nm excitation, without stopping the reaction.
The effect of the test compound is determined from the dose response curve generated by the 10 duplicate concentrations of inhibitor. The IC50 (the concentration of compound required to give a 50% decrease in enzyme activity) is obtained by fitting data to the equation, Y=a+((b−a)/(1+(c/X)^d)). (Y=inhibition achieved for a particular dose; X=the dose in nM; a=minimum y or zero % inhibition; b=maximum y or 100% inhibition; c=is the IC50; d=is the slope). The result is rounded to one significant figure.

[2] = read-out: percentage inhibition MMP9

Sequence of 92 kDa gelatinase (MMP-9) (P14780 107-707 limits assumed): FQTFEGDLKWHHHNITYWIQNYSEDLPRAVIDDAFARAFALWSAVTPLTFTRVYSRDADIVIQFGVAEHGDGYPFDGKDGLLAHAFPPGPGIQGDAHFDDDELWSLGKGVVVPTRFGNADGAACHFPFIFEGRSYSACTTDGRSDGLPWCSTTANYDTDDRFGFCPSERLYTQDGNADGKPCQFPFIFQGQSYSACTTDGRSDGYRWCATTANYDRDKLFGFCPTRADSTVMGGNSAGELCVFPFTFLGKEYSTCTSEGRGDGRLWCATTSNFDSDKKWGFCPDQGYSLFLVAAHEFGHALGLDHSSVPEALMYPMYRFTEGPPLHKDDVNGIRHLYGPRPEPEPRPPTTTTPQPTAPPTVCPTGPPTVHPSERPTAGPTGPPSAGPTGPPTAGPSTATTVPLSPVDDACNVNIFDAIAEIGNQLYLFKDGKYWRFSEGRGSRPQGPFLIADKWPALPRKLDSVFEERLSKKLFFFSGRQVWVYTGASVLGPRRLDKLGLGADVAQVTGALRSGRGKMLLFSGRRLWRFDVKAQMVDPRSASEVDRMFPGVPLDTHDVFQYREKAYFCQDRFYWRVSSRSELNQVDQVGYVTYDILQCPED

SMILES | IC50 [1] [µM] | inhibition at 5 µM (collagenase (MMP-1)) [%] | IC50 (human ADAM17 (TACE)) [µM] | inhibition at 5 µM [1, 2] [%] | inhibition at 0.1 µM (collagenase (MMP-1)) [%] | inhibition at 0.1 µM ([1]; @ 0.1 μM, read-out: percentage inhibition MMP9) [%]
COc1cc2c(cc1OC)CN(S(=O)(=O)CC([C@H](O)CO)N(O)C=O)CC2 (stereo partly drawn) [Example 24, N-((2S)-1-{[(6,7-dimethoxy-3,4-dihydroisoquinolin-2(1H)-yl)sulfonyl]methyl}-2,3-dihydroxypropyl)-N-hydroxyformamide] | > 5 | 0 | > 5 | – | – | –
O=CN(O)C(CS(=O)(=O)N1CCc2cc(C(F)(F)F)ccc2C1)C1CCCC1 (stereo not drawn) [Example 25, N-(1-cyclopentyl-2-{[6-(trifluoromethyl)-3,4-dihydro-isoquinolin-2(1H)-yl]sulfonyl}ethyl)-N-hydroxyformamide] | > 5 | 37 | 1.2 | – | – | –
CC(C)(C)CC(CS(=O)(=O)N1Cc2ccc(F)cc2C1)N(O)C=O (stereo not drawn) [Example 26, N-(1-{[(5-fluoro-1,3-dihydro-2H-isoindol-2-yl)sulfonyl]methyl}-3,3-dimethylbutyl)-N-hydroxyformamide] | – | 92 | 1.1 | 62 | 17 | –
O=CN(O)[C@H](CS(=O)(=O)N1CCc2ccc(C(F)(F)F)cc2C1)[C@H]1CCCO1 [Example 27, N-hydroxy-N-((1S)-1-[(2R)-tetrahydrofuran-2-yl]-2-{[7-(trifluoromethyl)-3,4-dihydroisoquinolin-2(1H)-yl]sulfonyl}ethyl)formamide] | – | 30 | 0.506 | 13 | – | –
CC1(C)OC[C@H](C(CS(=O)(=O)N2CCc3ccc(C(F)(F)F)cc3C2)N(O)C=O)O1 (stereo partly drawn) [Example 28, N-(1-[(4S)-2,2-dimethyl-1,3-dioxolan-4-yl]-2-{[7-(trifluoro-methyl)-3,4-dihydroisoquinolin-2(1H)-yl]sulfonyl}ethyl)-N-hydroxyformamide] | – | 18 | 1.28 | 21 | – | –
O=CN(O)[C@H](CS(=O)(=O)N1Cc2ccc(F)cc2C1)[C@H]1CCCO1 [Example 29, N-{(1S)-2-[(5-fluoro-1,3-dihydro-2H-isoindol-2-yl)-sulfonyl]-1-[(2R)-tetrahydrofuran-2-yl]ethyl}-N-hydroxyformamide] | – | 94 | 0.277 | 40 | 22 | –
CCC#CCC(C)(C)C(CS(=O)(=O)N1CCc2cc(C(F)(F)F)ccc2C1)N(O)C=O (stereo not drawn) [Example 30, N-[2,2-dimethyl-1-({[6-(trifluoromethyl)-3,4-dihydro-isoquinolin-2(1H)-yl]sulfonyl}methyl)hept-4-yn-1-yl]-N-hydroxyformamide] | – | 8 | > 5 | 3 | – | –
CC(C)(Cc1ccccc1)C(CS(=O)(=O)N1CCc2cc(C(F)(F)F)ccc2C1)N(O)C=O (stereo not drawn) [Example 31, N-[2,2-dimethyl-3-phenyl-1-({[6-(trifluoromethyl)-3,4-dihydroisoquinolin-2(1H)-yl]sulfonyl}methyl)propyl]-N-hydroxyformamide] | – | 10 | > 5 | 3 | – | –
O=CN(O)[C@@H](CS(=O)(=O)N1CCc2ccc(C(F)(F)F)cc2C1)[C@H]1CCCO1 [Example 32, N-hydroxy-N-((1R)-1-[(2R)-tetrahydrofuran-2-yl]-2-{[7-(trifluoromethyl)-3,4-dihydroisoquinolin-2(1H)-yl]sulfonyl}ethyl)formamide] | – | 4 | > 5 | 4 | – | –
COc1ccc2c(c1)CN(S(=O)(=O)CC(CCC1CCCO1)N(O)C=O)CC2 (stereo not drawn) [Example 33, N-hydroxy-N-[1-{[(7-methoxy-3,4-dihydroisoquinolin-2(1H)-yl)sulfonyl]methyl}-3-(tetrahydrofuran-2-yl)propyl]formamide] | – | 4 | 0.427 | 15 | – | –
CCC(CC)C(CS(=O)(=O)N1CCc2cc(Cl)c(Cl)cc2C1)N(O)C=O (stereo not drawn) [Example 34, N-(1-{[(6,7-dichloro-3,4-dihydroisoquinolin-2(1H)-yl)-sulfonyl]methyl}-2-ethylbutyl)-N-hydroxyformamide] | – | 12 | 0.353 | 42 | – | –
CCC(CC)C(CS(=O)(=O)N1CCc2cc(C(C)C)ccc2C1)N(O)C=O (stereo not drawn) [Example 35, N-(2-ethyl-1-{[(6-isopropyl-3,4-dihydroisoquinolin-2(1H)-yl)sulfonyl]methyl}butyl)-N-hydroxyformamide] | – | 6 | > 5 | 43 | – | –
CCC(CC)C(CS(=O)(=O)N1CCc2ccc(Br)cc2C1)N(O)C=O (stereo not drawn) [Example 36, N-(1-{[(7-bromo-3,4-dihydroisoquinolin-2(1H)-yl)sulfonyl]-methyl}-2-ethylbutyl)-N-hydroxyformamide] | – | 41 | 0.228 | 37 | – | –
CCC(CC)C(CS(=O)(=O)N1CCc2cc(C(F)(F)F)ccc2C1)N(O)C=O (stereo not drawn) [Example 37, N-[2-ethyl-1-({[6-(trifluoromethyl)-3,4-dihydroisoquinolin-2(1H)-yl]sulfonyl}methyl)butyl]-N-hydroxyformamide] | – | 36 | 1.09 | 58 | – | –
CCC(CC)C(CS(=O)(=O)N1CCc2ccc(OC)cc2C1)N(O)C=O (stereo not drawn) [Example 38, N-(2-ethyl-1-{[(7-methoxy-3,4-dihydroisoquinolin-2(1H)-yl)sulfonyl]methyl}butyl)-N-hydroxyformamide] | – | 17 | 0.276 | 50 | – | –
CC(C)C(CS(=O)(=O)N1CCc2cc(Cl)c(Cl)cc2C1)N(O)C=O (stereo not drawn) [Example 39, N-(1-{[(6,7-dichloro-3,4-dihydroisoquinolin-2(1H)-yl)-sulfonyl]methyl}-2-methylpropyl)-N-hydroxyformamide] | – | 25 | 0.171 | 47 | – | –
CCCOc1ccc2c(c1)CN(S(=O)(=O)CC(CC(C)(C)C)N(O)C=O)CC2 (stereo not drawn) [Example 40, N-(3,3-dimethyl-1-{[(7-propoxy-3,4-dihydroisoquinolin-2(1H)-yl)sulfonyl]methyl}butyl)-N-hydroxyformamide] | – | 2 | 1.12 | 11 | – | –
CC(C)(C)CC(CS(=O)(=O)N1CCc2ccc(Cl)cc2C1)N(O)C=O (stereo not drawn) [Example 41, N-(1-{[(7-chloro-3,4-dihydroisoquinolin-2(1H)-yl)sulfonyl]-methyl}-3,3-dimethylbutyl)-N-hydroxyformamide] | – | 54 | 0.189 | 14 | – | –
CC(C)(C)CC(CS(=O)(=O)N1CCc2cc(Cl)c(Cl)cc2C1)N(O)C=O (stereo not drawn) [Example 42, N-(1-{[(6,7-dichloro-3,4-dihydroisoquinolin-2(1H)-yl)-sulfonyl]methyl}-3,3-dimethylbutyl)-N-hydroxyformamide] | – | 29 | 0.611 | 35 | – | –
CC(C)(C)CC(CS(=O)(=O)N1CCc2cc(C(F)(F)F)ccc2C1)N(O)C=O (stereo not drawn) [Example 43, N-[3,3-dimethyl-1-({[6-(trifluoromethyl)-3,4-dihydro-isoquinolin-2(1H)-yl]sulfonyl}methyl)butyl]-N-hydroxyformamide] | – | 53 | > 5 | 68 | – | 1
